Consider 12 molecules from patent publication US8853203B2, “Diazepinone derivatives” (Novartis AG, priority 2012, dated 2014).

Each structure is given as a SMILES string. Bounds are passed on as bounds.

Assay [1] concerns the target human mGluR1 (Homo sapiens (Human), UniProt Q13255). As to the kind of experiment: mGluR1 antagonism, L-glutamate induced intracellular calcium increase (FLIPR) in CHO cells stably expressing human mGluR1. Type of assay: cell-based. Conditions: L-glutamate induced intracellular calcium, CHO cells expressing human mGluR1, FLIPR. A general note: A change in cytosolic calcium serves as a functional read-out for many receptors and channels.

Assay [2] concerns the target human mGluR5a receptors (Homo sapiens (Human), UniProt P41594). As to the kind of experiment: inhibition of glutamate-induced elevation of intracellular calcium in L(tk-) cells expressing human mGluR5a. The format is cell-based. Conditions: glutamate-induced intracellular calcium elevation, L(tk-) cells expressing human mGluR5a; read-out: mGluR5 IC50. An outline of the steps: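 Compounds tested for inhibition of the glutamate-induced rise in intracellular calcium concentration in L(tk-) cells stably expressing human mGluR5a.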

human mGluR5a receptors, sequence (P41594 other isoform, or with tags, fused parts or gaps): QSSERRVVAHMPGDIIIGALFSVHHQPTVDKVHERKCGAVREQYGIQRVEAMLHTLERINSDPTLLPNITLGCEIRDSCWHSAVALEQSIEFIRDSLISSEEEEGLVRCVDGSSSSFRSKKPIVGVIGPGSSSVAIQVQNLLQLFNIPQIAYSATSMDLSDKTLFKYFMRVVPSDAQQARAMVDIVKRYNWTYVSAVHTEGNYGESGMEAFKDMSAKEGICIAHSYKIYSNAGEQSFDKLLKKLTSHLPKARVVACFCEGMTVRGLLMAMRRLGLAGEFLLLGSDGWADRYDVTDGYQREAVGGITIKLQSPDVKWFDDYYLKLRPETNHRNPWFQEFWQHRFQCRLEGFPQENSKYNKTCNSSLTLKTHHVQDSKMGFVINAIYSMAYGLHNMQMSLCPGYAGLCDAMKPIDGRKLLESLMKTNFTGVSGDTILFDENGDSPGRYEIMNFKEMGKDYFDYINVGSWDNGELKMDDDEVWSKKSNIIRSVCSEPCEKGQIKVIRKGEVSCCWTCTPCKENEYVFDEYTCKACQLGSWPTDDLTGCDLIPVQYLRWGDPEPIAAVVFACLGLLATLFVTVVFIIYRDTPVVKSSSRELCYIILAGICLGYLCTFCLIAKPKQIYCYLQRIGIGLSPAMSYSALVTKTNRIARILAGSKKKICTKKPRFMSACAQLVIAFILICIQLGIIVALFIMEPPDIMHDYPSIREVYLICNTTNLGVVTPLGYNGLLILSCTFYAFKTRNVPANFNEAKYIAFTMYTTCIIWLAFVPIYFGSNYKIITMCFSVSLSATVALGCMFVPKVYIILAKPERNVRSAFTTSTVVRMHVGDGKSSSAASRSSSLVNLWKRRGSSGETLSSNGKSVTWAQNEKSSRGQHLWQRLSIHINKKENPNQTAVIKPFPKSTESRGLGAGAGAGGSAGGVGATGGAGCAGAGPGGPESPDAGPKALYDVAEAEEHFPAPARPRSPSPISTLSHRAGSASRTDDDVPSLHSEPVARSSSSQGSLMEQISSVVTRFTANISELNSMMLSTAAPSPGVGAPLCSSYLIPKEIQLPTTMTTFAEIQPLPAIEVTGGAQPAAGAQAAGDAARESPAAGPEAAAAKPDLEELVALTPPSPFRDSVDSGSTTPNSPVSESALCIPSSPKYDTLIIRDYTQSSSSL
human mGluR1, sequence (Q13255 19-1194): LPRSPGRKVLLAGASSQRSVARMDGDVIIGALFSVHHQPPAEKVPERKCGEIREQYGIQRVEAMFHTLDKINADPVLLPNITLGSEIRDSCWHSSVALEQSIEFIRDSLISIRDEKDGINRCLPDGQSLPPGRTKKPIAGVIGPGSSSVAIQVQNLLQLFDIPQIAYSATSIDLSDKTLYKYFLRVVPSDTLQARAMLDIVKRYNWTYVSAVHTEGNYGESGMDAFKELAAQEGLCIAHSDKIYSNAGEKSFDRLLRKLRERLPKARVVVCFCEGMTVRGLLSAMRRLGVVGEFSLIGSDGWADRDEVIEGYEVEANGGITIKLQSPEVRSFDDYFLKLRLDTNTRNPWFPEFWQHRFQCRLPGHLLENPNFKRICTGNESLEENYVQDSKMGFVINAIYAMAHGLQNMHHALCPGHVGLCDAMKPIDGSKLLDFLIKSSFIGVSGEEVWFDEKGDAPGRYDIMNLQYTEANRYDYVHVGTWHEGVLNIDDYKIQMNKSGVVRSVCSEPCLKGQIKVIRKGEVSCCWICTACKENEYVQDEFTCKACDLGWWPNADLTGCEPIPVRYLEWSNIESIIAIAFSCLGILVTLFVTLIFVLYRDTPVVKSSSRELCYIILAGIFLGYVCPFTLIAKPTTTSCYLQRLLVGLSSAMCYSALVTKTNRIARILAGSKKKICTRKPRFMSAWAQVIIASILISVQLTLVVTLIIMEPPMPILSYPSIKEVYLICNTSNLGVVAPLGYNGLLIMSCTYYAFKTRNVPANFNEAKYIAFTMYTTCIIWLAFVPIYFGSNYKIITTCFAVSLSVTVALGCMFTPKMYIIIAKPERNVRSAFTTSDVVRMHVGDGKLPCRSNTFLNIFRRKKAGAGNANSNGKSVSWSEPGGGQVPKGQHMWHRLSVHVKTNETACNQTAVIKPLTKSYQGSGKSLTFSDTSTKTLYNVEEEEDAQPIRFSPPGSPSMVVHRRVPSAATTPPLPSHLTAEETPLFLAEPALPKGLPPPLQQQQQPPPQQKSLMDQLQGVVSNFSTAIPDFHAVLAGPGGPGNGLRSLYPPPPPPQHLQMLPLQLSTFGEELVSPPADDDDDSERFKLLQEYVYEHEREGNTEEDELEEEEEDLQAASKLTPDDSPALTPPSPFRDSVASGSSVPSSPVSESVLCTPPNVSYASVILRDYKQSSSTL

As to `COCCc1cn(C2=NCC(=O)N3CCc4c(cccc4-c4nccs4)C3=C2)cn1` [Example 88h, 2-(4-(2-methoxyethyl)-1H-imidazol-1-yl)-9-(thiazol-2-yl)-7,8-dihydro-[1,4]diazepino[7,1-a]isoquinolin-5(4H)-one], the IC50 in assay [1] worked out at 1050 nM; in assay [2] it was 46 nM.
As for `CCOCc1cn(C2=NCC(=O)N3CCc4c(cccc4-c4nccs4)C3=C2)cn1` [Example 88j, 2-(4-(ethoxymethyl)-1H-imidazol-1-yl)-9-(thiazol-2-yl)-7,8-dihydro-[1,4]diazepino[7,1-a]isoquinolin-5(4H)-one], the IC50 came to 1860 nM in assay [1] and 56 nM in assay [2].
As to `O=C1CN=C(n2cnc(C3CC3)c2)C=C2c3cccc(-c4cnccc4F)c3CCN12` [Example 88k, 2-(4-cyclopropyl-1H-imidazol-1-yl)-9-(4-fluoropyridin-3-yl)-7,8-dihydro-[1,4]diazepino[7,1-a]isoquinolin-5(4H)-one], the IC50 in assay [1] worked out at 5860 nM; in assay [2], 69 nM.
Consider `CCc1cccc2c1CCN1C(=O)CN=C(n3cnc(C(C)C)c3)C=C21` [Example 89, 9-ethyl-2-(4-isopropyl-1H-imidazol-1-yl)-7,8-dihydro-[1,4]diazepino[7,1-a]isoquinolin-5(4H)-one], for which the IC50 in assay [1] stood at 650 nM; in assay [2] it was 28 nM.
For `CCCc1cccc2c1CCN1C(=O)CN=C(n3cnc(C)c3)C=C21` [Example 90, 2-(4-methyl-1H-imidazol-1-yl)-9-propyl-7,8-dihydro-[1,4]diazepino[7,1-a]isoquinolin-5(4H)-one], in that order: 1500 nM and 10 nM.
For `COCc1cn(C2=NCC(=O)N3CCc4c(cccc4C4CCC4)C3=C2)cn1` [Example 91, 9-cyclobutyl-2-(4-(methoxymethyl)-1H-imidazol-1-yl)-7,8-dihydro-[1,4]diazepino[7,1-a]isoquinolin-5(4H)-one] the same measures were 220 nM and 9 nM.
As for `Cc1ncn(C2=NCC(=O)N3CCc4c(cccc4C4CCC4)C3=C2)n1` [Example 92, 9-cyclobutyl-2-(3-methyl-1H-1,2,4-triazol-1-yl)-7,8-dihydro-[1,4]diazepino[7,1-a]isoquinolin-5(4H)-one], the IC50 in assay [1] was 636 nM; in assay [2], less than 1 nM.
For `COCc1ncn(C2=NCC(=O)N3CCc4c(cccc4C4CC4)C3=C2)n1` [Example 93, 9-cyclopropyl-2-(3-(methoxymethyl)-1H-1,2,4-triazol-1-yl)-7,8-dihydro-[1,4]diazepino[7,1-a]isoquinolin-5(4H)-one] the same measures were 1500 nM and 3 nM.
With `CC(C)c1cn(C2=NCC(=O)N3CCc4c(-c5ccc(F)nc5)ccnc4C3=C2)cn1` [Example 94, 4-(6-fluoropyridin-3-yl)-11-(4-isopropyl-1H-imidazol-1-yl)-5,6-dihydro-[1,4]diazepino[1,7-h][1,7]naphthyridin-8(9H)-one], the IC50 was more than 10000 nM in assay [1] and 2700 nM in assay [2].
For `O=C1CN=C(n2cnc(C3CC3)c2)C=C2c3cccc(-c4ccc(F)nc4)c3CCN12` [Example 95-1, 2-(4-cyclopropyl-1H-imidazol-1-yl)-9-(6-fluoropyridin-3-yl)-7,8-dihydro-[1,4]diazepino[7,1-a]isoquinolin-5(4H)-one] the same measures were 10000 nM and 20 nM.
For `O=C1CN=C(n2cnc(C3CC3)n2)C=C2c3cccc(-c4ccc(F)nc4)c3CCN12` [Example 95-2, 2-(3-cyclopropyl-1H-1,2,4-triazol-1-yl)-9-(6-fluoropyridin-3-yl)-7,8-dihydro-[1,4]diazepino[7,1-a]isoquinolin-5(4H)-one] the same measures were more than 10000 nM and 11 nM.
As for `COCc1cn(C2=NCC(=O)N3CCc4c(cccc4C4CC4)C3=C2)cn1` [Example 96-1, 9-cyclopropyl-2-(4-(methoxymethyl)-1H-imidazol-1-yl)-7,8-dihydro-[1,4]diazepino[7,1-a]isoquinolin-5(4H)-one], the IC50 in assay [1] stood at 540 nM; in assay [2], 6 nM.

For orientation: IC50 means the midpoint of a concentration-inhibition curve.
